Test results: PubChem BioAssay AID328 (DTP/NCI, 2004)
Where “and” joins values, the source holds several entries; their conditions need not be identical. Equal values may be shown once. Toxic doses and inconclusive results are not listed. The calls were made as follows: active = survival T/C of 150% or more; inactive = T/C below 125% in these data.

System: BDF1 mice, P388 leukemia ip, median survival T/C
Assay: NCI In Vivo Anticancer Drug Screen. Data for tumor model P388 Leukemia (intraperitoneal) in B6D2F1 (BDF1) mice
Conditions: endpoint: median survival time, higher = longer survival
Procedure: The antitumor activity of compounds was measured in mice bearing transplantable tumors. Survival or tumor size were measured and the results are expressed as the measurement made in the treated group (T) divided by the measurement made in the vehicle treated control group (C). The tumor model used in this assay is P388 Leukemia (intraperitoneal) in B6D2F1 (BDF1) mice

[1] = dose: 50.0 mg/kg/injection, schedule: Q04DX003 (ip), vehicle: saline with Tween-80
[2] = dose: 100.0 mg/kg/injection, schedule: Q04DX003 (ip), vehicle: saline with Tween-80
[3] = dose: 200.0 mg/kg/injection, schedule: Q04DX003 (ip), vehicle: saline with Tween-80
[4] = dose: 100.0 mg/kg/injection, schedule: Q01DX009 (ip), vehicle: Klucel (hydroxypropylcellulose) (HPC)
[5] = dose: 100.0 mg/kg/injection, schedule: Q04DX003 (ip), vehicle: Klucel (hydroxypropylcellulose) (HPC)
[6] = dose: 200.0 mg/kg/injection, schedule: Q01DX009 (ip), vehicle: Klucel (hydroxypropylcellulose) (HPC)
[7] = dose: 200.0 mg/kg/injection, schedule: Q04DX003 (ip), vehicle: Klucel (hydroxypropylcellulose) (HPC)
[8] = dose: 400.0 mg/kg/injection, schedule: Q01DX009 (ip), vehicle: Klucel (hydroxypropylcellulose) (HPC)
[9] = dose: 400.0 mg/kg/injection, schedule: Q04DX003 (ip), vehicle: Klucel (hydroxypropylcellulose) (HPC)

Measured: T/C

S=c1[nH]c2nc(Cl)c(Cl)nc2[nH]1
inactive: dose: 12.5 mg/kg/injection, schedule: Q01DX009 (ip), vehicle: saline with Tween-80 94 % of control | dose: 25.0 mg/kg/injection, schedule: Q01DX009 (ip), vehicle: saline with Tween-80 92 % of control and 115 % of control | dose: 50.0 mg/kg/injection, schedule: Q01DX009 (ip), vehicle: saline with Tween-80 102 % of control | [1] 94 % of control | dose: 100.0 mg/kg/injection, schedule: Q01DX009 (ip), vehicle: saline with Tween-80 94 % of control and 99 % of control | [2] 92 % of control | [3] 94 % of control | dose: 300.0 mg/kg/injection, schedule: Q01DX009 (ip), vehicle: saline with Tween-80 105 % of control

CC[P+](CC)(CC)CCCCI
inactive: dose: 6.25 mg/kg/injection, schedule: Q01DX009 (ip), vehicle: saline 120 % of control | dose: 12.5 mg/kg/injection, schedule: Q01DX009 (ip), vehicle: saline 123 % of control | dose: 25.0 mg/kg/injection, schedule: Q01DX009 (ip), vehicle: saline 108 % of control and 120 % of control | dose: 50.0 mg/kg/injection, schedule: Q01DX009 (ip), vehicle: saline 99 % of control

CC(=O)Nc1c(Cl)cc2c(c1Cl)Cc1cc(N=Cc3ccc4c(c3)OCO4)ccc1-2
inactive: dose: 25.0 mg/kg/injection, schedule: Q01DX009 (ip), vehicle: Klucel (hydroxypropylcellulose) (HPC) 90 % of control | dose: 50.0 mg/kg/injection, schedule: Q01DX009 (ip), vehicle: Klucel (hydroxypropylcellulose) (HPC) 90 % of control | [4] 86 % of control

CC(O)c1ccc(-c2ccccc2)cc1 (stereo unspecified)
inactive: [4] 120 % of control | [5] 95 % of control | [6] 105 % of control | [7] 100 % of control | [8] 110 % of control | [9] 100 % of control

COc1ccc(Nc2nc(N)nc(CNc3ccc(Cl)cc3)n2)cc1
inactive: dose: 100.0 mg/kg/injection, schedule: Q04DX003 (ip), vehicle: saline sonified 100 % of control | dose: 200.0 mg/kg/injection, schedule: Q04DX003 (ip), vehicle: saline sonified 100 % of control | dose: 400.0 mg/kg/injection, schedule: Q04DX003 (ip), vehicle: saline sonified 110 % of control

COc1ccc(-c2cc(-c3ccc(Cl)cc3)no2)cc1
inactive: [4] 90 % of control | [5] 100 % of control | [6] 90 % of control | [7] 100 % of control | [8] 100 % of control | [9] 100 % of control

CC1CNC(=S)O1 (stereo unspecified)
inactive: [1] 90 % of control | [2] 120 % of control | [3] 90 % of control | dose: 400.0 mg/kg/injection, schedule: Q04DX003 (ip), vehicle: saline with Tween-80 115 % of control

CC[N+](C)(CC)CCC[n+]1c(-c2ccccc2)c2cc(N)ccc2c2ccc(N)cc21
inactive: dose: 1.5 mg/kg/injection, schedule: Q01DX009 (ip), vehicle: saline 107 % of control | dose: 3.0 mg/kg/injection, schedule: Q01DX009 (ip), vehicle: saline 100 % of control | dose: 3.12 mg/kg/injection, schedule: Q04DX003 (ip), vehicle: saline 100 % of control | dose: 6.25 mg/kg/injection, schedule: Q04DX003 (ip), vehicle: saline 100 % of control

CCOC(/C=C/c1ccccc1)OCC
inactive: dose: 264.0 mg/kg/injection, schedule: Q04DX003 (ip), vehicle: saline 90 % of control | dose: 400.0 mg/kg/injection, schedule: Q04DX003 (ip), vehicle: saline 100 % of control | dose: 600.0 mg/kg/injection, schedule: Q04DX003 (ip), vehicle: saline 113 % of control

O=C1C(=O)c2ccccc2C(O)=C1CC=C(Cl)Cl
inactive: dose: 6.2 mg/kg/injection, schedule: Q01DX005 (ip), vehicle: water 100 % of control | dose: 12.5 mg/kg/injection, schedule: Q01DX001 (ip), vehicle: water 100 % of control | dose: 12.5 mg/kg/injection, schedule: Q01DX005 (ip), vehicle: water 100 % of control | dose: 12.5 mg/kg/injection, schedule: Q01DX010 (ip), vehicle: saline 100 % of control | dose: 12.5 mg/kg/injection, schedule: Q03HX024 (ip), vehicle: water 100 % of control | dose: 12.5 mg/kg/injection, schedule: Q04DX003 (ip), vehicle: water 100 % of control | dose: 12.5 mg/kg/injection, schedule: Q08DX002 (ip), vehicle: water 100 % of control | dose: 25.0 mg/kg/injection, schedule: Q01DX001 (ip), vehicle: water 108 % of control | dose: 25.0 mg/kg/injection, schedule: Q01DX005 (ip), vehicle: water 100 % of control | dose: 25.0 mg/kg/injection, schedule: Q01DX009 (ip), vehicle: water 100 % of control | dose: 25.0 mg/kg/injection, schedule: Q01DX009 (oral), vehicle: water 100 % of control | dose: 25.0 mg/kg/injection, schedule: Q01DX010 (ip), vehicle: saline 87 % of control | dose: 25.0 mg/kg/injection, schedule: Q03HX008 (ip), vehicle: water 100 % of control | dose: 25.0 mg/kg/injection, schedule: Q03HX016 (ip), vehicle: water 109 % of control | dose: 25.0 mg/kg/injection, schedule: Q03HX024 (ip), vehicle: water 100 % of control | dose: 25.0 mg/kg/injection, schedule: Q04DX003 (ip), vehicle: water 100 % of control | dose: 25.0 mg/kg/injection, schedule: Q08DX002 (ip), vehicle: water 109 % of control | dose: 50.0 mg/kg/injection, schedule: Q01DX001 (ip), vehicle: water 108 % of control | dose: 50.0 mg/kg/injection, schedule: Q01DX001 (oral), vehicle: water 108 % of control | dose: 50.0 mg/kg/injection, schedule: Q01DX005 (ip), vehicle: water 100 % of control | dose: 50.0 mg/kg/injection, schedule: Q01DX009 (oral), vehicle: water 100 % of control | dose: 50.0 mg/kg/injection, schedule: Q01DX010 (ip), vehicle: saline 91 % of control | dose: 50.0 mg/kg/injection, schedule: Q01DX010 (oral), vehicle: saline with Tween-80 104 % of control | dose: 50.0 mg/kg/injection, schedule: Q03HX008 (ip), vehicle: water 100 % of control | dose: 50.0 mg/kg/injection, schedule: Q03HX016 (ip), vehicle: water 100 % of control | dose: 50.0 mg/kg/injection, schedule: Q03HX024 (ip), vehicle: water 86 % of control | dose: 50.0 mg/kg/injection, schedule: Q04DX003 (ip), vehicle: water 100 % of control | dose: 50.0 mg/kg/injection, schedule: Q08DX002 (ip), vehicle: water 109 % of control | dose: 75.0 mg/kg/injection, schedule: Q01DX005 (ip), vehicle: water 108 % of control | dose: 75.0 mg/kg/injection, schedule: Q03HX024 (ip), vehicle: water 86 % of control | dose: 75.0 mg/kg/injection, schedule: Q04DX003 (ip), vehicle: water 100 % of control | dose: 100.0 mg/kg/injection, schedule: Q01DX001 (oral), vehicle: water 108 % of control | dose: 100.0 mg/kg/injection, schedule: Q01DX009 (oral), vehicle: water 86 % of control | dose: 100.0 mg/kg/injection, schedule: Q01DX010 (oral), vehicle: saline with Tween-80 108 % of control | dose: 100.0 mg/kg/injection, schedule: Q03HX008 (ip), vehicle: water 100 % of control | dose: 100.0 mg/kg/injection, schedule: Q03HX016 (ip), vehicle: water 100 % of control | dose: 100.0 mg/kg/injection, schedule: Q03HX024 (ip), vehicle: water 100 % of control | dose: 100.0 mg/kg/injection, schedule: Q08DX002 (ip), vehicle: water 109 % of control | dose: 200.0 mg/kg/injection, schedule: Q01DX001 (oral), vehicle: water 100 % of control | dose: 200.0 mg/kg/injection, schedule: Q03HX008 (ip), vehicle: water 109 % of control | dose: 200.0 mg/kg/injection, schedule: Q03HX016 (ip), vehicle: water 100 % of control | dose: 300.0 mg/kg/injection, schedule: Q01DX009 (oral), vehicle: water 91 % of control

CNC(C)COc1ccccc1 (stereo unspecified)
inactive: dose: 25.0 mg/kg/injection, schedule: Q04DX003 (ip), vehicle: saline 104 % of control | dose: 50.0 mg/kg/injection, schedule: Q04DX003 (ip), vehicle: saline 100 % of control | dose: 100.0 mg/kg/injection, schedule: Q04DX003 (ip), vehicle: saline 90 % of control
